Experiments:
[1] = system: SH-SY5Y tumor cells; test: In vitro repetitive challenge assay with Compound A; assay type: cell-based, human
Protocol: To evaluate the effect of 3-(4-amino-1-oxo-1,3 dihydro-2H-isoindol-2-yl)piperidine-2,6-dione (Compound A) on CAR T cell recursive killing potential, T cell expansion and survival, an in vitro repetitive challenge assay was employed. Exemplary CAS70950VH6-BBz CAR T cells on day 11 post-transduction were co-cultured with SH-SY5Y tumor cells at an effector (CAR T) to target cell ratio of 1:2. The co-culture media was supplemented with 10 μM Compound A throughout this study. CAR T cells were re-challenged with tumor cells every 3 days (round 1, round 2, round 3 and round 4). CAR T cells and tumor cells co-cultured without addition of Compound A was used as a control. The percentages of CD3^+ T cells, percentages of CD3^+CAR^+ T cells were analyzed by flow cytometer. The amount of IFNγ in the co-culture supernatant was quantified using HTRF human IFNγ AlphaLISA kit (Perkin Elmer, #62HIFNGPEH) as described in Example 6.

[2] = system: SH-SY5Y cells; test: Cytotoxicity of CAR T cells in presence of Compound A gradient; assay type: cell-based, human; conditions: 0.04-30 μM Compound A, E:T 0.2:1, 20 hours, FIG. 10
Protocol: To evaluate if Compound A influence to the cytotoxicity of CAR T against tumor cell, Compound A (CAS Number:191732-72-6, Sigma-Aldrich, St. Louis) stock was serially diluted to final concentration of 30, 10, 3.33, 1.11, 0.37, 0.12 and 0.04 μM using complete growth medium. In the presence of Compound A gradient, CAR T cells were co-incubated with tumor cells at an effector (CAR T) to target cell ratio of 0.2:1 for 20 hours. CAR T cells and tumor cells co-cultured without addition of Compound A served as a control. Cytotoxicity of CAR T cells on tumor cells was estimated using the Cytotoxicity Detection Kit (LDH) (Roche, #11644793001) as described in Example 6.

[3] = system: neuroblastoma SH-SY5Y xenograft; test: In vivo combination of Compound A and CAR T cells in SH-SY5Y xenograft; conditions: FIG. 12A
[4] = system: neuroblastoma SH-SY5Y xenograft; conditions: mouse, in vivo

`Nc1cccc2c1CN(C1CCC(=O)NC1=O)C2=O` (stereo not shown) [Compound A, 3-(4-amino-1-oxo-1,3 dihydro-2H-isoindol-2-yl)piperidine-2,6-dione] was tested, and the “IFNγ released from CAS70950VH6-BBz CAR T cells compared to non-treated CAR T cells” value ([1]; 10 μM Compound A) was “higher amount of IFNγ”, the “CD3+CAR+ T cells survival and expansion after repetitive tumor challenges” value ([1]; CAS70950VH6-BBz CAR T cells with 10 μM Compound A, FIG. 11A-11B) was “promoted CD3^+CAR^+ T cells survival and expansion” and the “effector activity of CAS70950VH6-BBz CAR T cells after repetitive tumor challenges” value ([1]; supplemented with 10 μM Compound A, FIG. 11A-11B) was “maintained their effector activity”. For the same molecule, the “effect of Compound A on cytotoxicity of CAS70950VH6-BBz CAR T cells against SH-SY5Y” value [2] was “not impaired”, the “tumor regression, Compound A in combination with CAS70950VH6-BBz CAR-T cells” value ([3]; Compound A 7.5 mg/kg i.p. 21 days plus 1.5×10^6 CAR+ T cells) was “more pronounced tumor regression” and the “tumor growth, single treatment” value ([3]; twelve days after treatment, CAR T 1.5×10^6 i.v. or Compound A 7.5 mg/kg i.p. for 21 days) was “did not achieve any tumor suppression”. The “promotion of CAR+ T cells expansion by Compound A co-administration” value [4] was “about 6 fold”.
